Test results published in patent publication US5686460A, “Carbocyclic diarylmethylene derivatives, processes for their preparation and their uses in therapeutics” (Laboratoires UPSA, priority 1996, dated 1997).

Legend:
COX-2 = target: T1, COX-2 (Ovis aries, UniProt P79208); experiment: Inhibition of the COX-2 enzymatic activity (PGE2 determined by EIA); assay type: biochemical, ewe; details: arachidonic acid 4 μM, mean±standard deviations of 4 determinations; for inhibition at 10 µM: 10^-5 M; for inhibition at 0.1 µM: 10^-7 M
T1 construct: purified enzyme from ewe placenta; from tissue; host or cells: ewe placenta
T1 sequence (P79208 17-603): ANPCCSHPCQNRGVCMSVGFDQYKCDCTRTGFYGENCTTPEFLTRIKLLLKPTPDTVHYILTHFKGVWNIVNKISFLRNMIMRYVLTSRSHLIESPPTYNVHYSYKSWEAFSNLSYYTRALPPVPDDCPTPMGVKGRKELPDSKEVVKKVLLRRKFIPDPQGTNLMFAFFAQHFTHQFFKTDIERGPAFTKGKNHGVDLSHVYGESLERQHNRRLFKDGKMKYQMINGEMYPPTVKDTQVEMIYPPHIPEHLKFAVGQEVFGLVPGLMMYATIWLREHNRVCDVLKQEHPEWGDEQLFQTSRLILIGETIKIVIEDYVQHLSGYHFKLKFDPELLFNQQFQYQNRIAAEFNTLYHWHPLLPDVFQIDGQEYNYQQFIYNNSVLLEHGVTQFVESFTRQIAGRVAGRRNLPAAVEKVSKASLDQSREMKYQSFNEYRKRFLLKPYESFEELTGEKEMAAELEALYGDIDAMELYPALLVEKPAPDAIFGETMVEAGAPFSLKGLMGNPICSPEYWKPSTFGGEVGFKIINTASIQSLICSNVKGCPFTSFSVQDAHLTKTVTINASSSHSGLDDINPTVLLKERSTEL
Procedure: (§1) Inhibition of the COX-1 and COX-2 enzymatic activities The molecule studied is preincubated for 10 minutes at 25° C. with 2 U of COX-1 (purified enzyme from ram seminal vesicles) or 1 U of COX-2 (purified enzyme from ewe placenta). Arachidonic acid (6 μM for COX-1, 4 μM for COX-2) is added to the reaction medium and incubation is carried out for 5 minutes at 25° C. When incubation has ended, the enzymatic reaction is stopped by the addition of 1N HCl and the PGE2 produced is determined by EIA. The results are expressed as the percentage inhibition of the COX-1 and COX-2 enzymatic activities and correspond to mean±standard deviations of the average of 4 determinations.

carrageenin edema = carrageenin edema test (anti-inflammatory activity); assay type: in vivo; details: rat, oral, 100 mg/kg, 3 hours, n=6 animals per dose
Procedure: (§2) The anti-inflammatory activity of the compounds of the Examples was evaluated by the carrageenin edema method and the analgesic activity was evaluated by the kaolin arthritis method.
Anti-inflammatory activity:
The anti-inflammatory activity is evaluated in the rat by the carrageenin edema test. The product is administered orally at a rate of 2.5 ml/100 g (n=6 animals per dose) 2 h 30 rain after oral hyperhydration (2.5 ml/100 g). One hour after administration of the product, the edema is induced by the plantar subcutaneous injection of 2% aqueous carrageenin solution. The percentage inhibition of the volume of the edema is calculated after 3 hours by measurement of the volume of the paw with a mercury plethysmograph.

COX-1 = experiment: Inhibition of the COX-1 enzymatic activity (PGE2 determined by EIA); assay type: biochemical, ram; details: 10^-5 M; arachidonic acid 6 μM; mean±standard deviations of 4 determinations
Procedure: as §1

kaolin arthritis = kaolin arthritis test (analgesic activity); assay type: in vivo; details: rat, oral, 100 mg/kg, 5 h 30 after administration, n=10 animals per dose
Procedure: as §2
The analgesic activity is evaluated in the rat by the kaolin arthritis test. Thirty minutes after the intra-articular administration of 10% aqueous kaolin suspension, the product is administered orally at a rate of 1 ml/100 g (n=10 animals per dose). The percentage inhibition of the animal's pain response (grading of the gait) is calculated 5 h 30 rain after administration of the product.

SMILES	inhibition at 10 µM (COX-2) [%]	inhibition at 0.1 µM (COX-2) [%]	Anti-inflammatory activity % inhibition (of the volume of the edema) (carrageenin edema) [%]	% inhibition of the COX-1 activity (COX-1) [%]	Analgesic activity % inhibition (of the animal's pain response, grading of the gait) (kaolin arthritis) [%]
CS(=O)(=O)c1ccc(C(=C2CCCC2)c2ccc(F)cc2)cc1 [Example 3, 4-[(Cyclopentylidene)(4-fluorophenyl)methyl]methylsulfonylbenzene]	66 ± 4	21 ± 4			
CS(=O)(=O)c1ccc(C(=C2CCCC2)c2ccc(Cl)nc2)cc1 [Example 6, 2-Chloro-5-[(cyclopentylidene)(4-methylsulfonylphenyl)methyl]-pyridine]	65 ± 2	18 ± 8	45.8 ± 9.8	0 ± 0	55.0 ± 15.7
CS(=O)(=O)c1ccc(C(=C2C=CC=C2)c2ccc(F)cc2)cc1 [Example 12, 4-[(Cyclopenta-2,4-dienylidene)(4-fluorophenyl)methyl]methyl-sulfonylbenzene]	57 ± 3				
